Values after ≈ are worked out from the molar mass of the structure shown. Like-named read-outs stand apart in the source and are kept apart here.
What was measured:
MRSA [1] = test: Antibacterial activity of flavonoids on MRSA (agar plate dilution method, MIC); assay type: cell-based, Staphylococcus aureus; conditions: flavonoid alone; for MIC: 20 h; for MIC / MIC50 / MIC90 / MIC range: MRSA 20 strains
Protocol: (§1) MRSA were employed as bacteria to be tested. The antibacterial activity was determined according to the agar plate dilution method defined by Japan Society of Chemotherapy (Chemotherapy 29(1), 76-79(1981)). The employed plate medium for the measurement of sensitivity was semisynthetic medium based on Mueller-Hinton Agar, and the bacteria solution for seeding was prepared by incubating the test bacterium in Mueller-Hinton Broth at 37° C. for 20 hours, followed by diluting in 0.85% saline to give 10^6 CFU/mL. The test samples were produced in two times-serial dilution method. To this plate medium for the measurement of sensitivity, was seeded a bacteria solution with a Micro Planter® (Sakuma Seisakusho). After incubating at 37° C. for 20 hours, a minimum inhibitory concentration (MIC) was determined. […] In addition, MIC50 indicates a concentration yielding the proliferation inhibitory effect in 50% of total number of MRSA strains, whilst MIC90 indicates a concentration yielding the proliferation inhibitory effect in 90% of total number of MRSA strains.

[2] = Dissolution of rutin (auxiliary effects of L-arginine hydrochloride and L-cysteine); solubility in water; assay type: physicochemical
Protocol: To the solution B, is added 3.5 mL of the solution A. After adjusting the pH of the mixture to 8.5 with HCl, the mixture is filtered to give an injectable.

MRSA [3] = test: Enhancement of the antibacterial activity of various antibiotics by flavone on MRSA; assay type: cell-based, Staphylococcus aureus; conditions: for MIC: Staphylococcus aureus, antibiotics alone; for MIC +flavone: addition of 50 μg/mL of flavone
Protocol: as §1
Antibacterial Activities of Various β-Lactam Antibiotics on MRSA with 50 μg/mL of Flavone

[4] = system: penicillinase producing Staphylococcus aureus; test: Effects of flavone in combination with benzylpenicillin or methicillin on penicillinase producing Staphylococcus aureus; assay type: cell-based; conditions: antibiotic alone
Protocol: as §1
The effects of flavone in combination with benzylpenicillin or methicillin on penicillinase producing Staphylococcus aureus are shown in Table 4.
Effects of Flavone in Combination with Benzylpenicillin or Methicillin on Penicillinase Producing Staphylococcus aureus.

MRSA [5] = test: Enhancement of the antibacterial activity of methicillin by various flavonoids on MRSA; assay type: cell-based, Staphylococcus aureus; conditions: methicillin alone
Protocol: as §1
Antibacterial Activities of Methicillin on MRSA with 50 μg/mL of Various Flavonoids

MRSA infected mouse = test: Antibacterial activity on MRSA infected mouse (survival rate after 5 days); assay type: in vivo
Protocol: MRSA was incubated with Brain-Heart Infusion medium at 37° C. for 18 hours, and then the bacteria were collected and washed, followed by resuspension in saline. The suspension was admixed in an aqueous 5% gastric mucin solution and the concentration was adjusted to a predetermined value. Then, 0.2 mL of the mixture was intraperitoneally administered to an ICR strain SPF mouse. At one hour after the infection, various concentrations of β-lactam agents and rutin (0.2 mL) was subcutaneously administered, and survival rate was analyzed after 5 days and thus the effectiveness was evaluated. In addition, the effectiveness by oral administration (0.2 mL) was evaluated and various concentrations of β-lactam agents and rutin (0.2 mL) were administered using a gastric probe 1 hour or 5 hours prior to the infection.

[6] = Staphylococcus aureus, read-out: MIC50
[7] = Staphylococcus aureus, read-out: MIC90

For O=c1c(O)c(-c2ccc(O)c(O)c2)oc2cc(O)ccc12 [fisetin], the MIC (MRSA [1]; Staphylococcus aureus) was 62.5 to 125 µg/mL (≈ 218 to 437 µM), the MIC50 (MRSA [1]; [6]) was 125 µg/mL (≈ 437 µM) and the MIC90 (MRSA [1]; [7]) was 125 µg/mL (≈ 437 µM). For the same molecule, the “antibacterial activity on MRSA (in words)” value (MRSA [1]) was “potent antibacterial activity”.

With O=c1cc(-c2ccccc2)oc2ccccc12 [flavone] the “solubility in water (in words)” value [2] was “insoluble in water”, the MIC50 (MRSA [1]; [6]) was 62.5 µg/mL (≈ 281 µM) and the MIC90 (MRSA [1]; [7]) was 125 µg/mL (≈ 562 µM).

O=C1c2ccc(O)cc2O[C@H](c2ccc(O)c(O)c2)[C@H]1O [fustin] showed an MIC50 (MRSA [1]; [6]) of 500 µg/mL (≈ 1730 µM) and an MIC90 (MRSA [1]; [7]) of 500 µg/mL (≈ 1730 µM).

For COc1ccc(-c2oc3cc(O)cc(O)c3c(=O)c2O)cc1 [kaempferid], the MIC50 (MRSA [1]) was 125 µg/mL (≈ 416 µM), the MIC90 (MRSA [1]) was 125 µg/mL (≈ 416 µM) and the MIC range (MRSA [1]) was 15.6 to 125 µg/mL. The “antibacterial activity on MRSA (in words)” value (MRSA [1]) was “potent antibacterial activity”.

O=C1C[C@@H](c2ccc(O)cc2)Oc2cc(O)ccc21 [liquiritigenin] showed an MIC50 (MRSA [1]) of 500 µg/mL (≈ 1950 µM), an MIC90 (MRSA [1]) of 500 µg/mL (≈ 1950 µM) and an MIC range (MRSA [1]) of 250 to 500 µg/mL.

For COc1cccc(OC)c1C(=O)N[C@@H]1C(=O)N2[C@@H]1SC(C)(C)[C@@H]2C(=O)O [methicillin], the MIC (MRSA [3]) was 1020 µg/mL, the “MIC +flavone” value (MRSA [3]) was 4 µg/mL and the MIC [4] was 0.98 µg/mL. For the same molecule, the MIC (MRSA [5]; Staphylococcus aureus) was 1020 µg/mL and the MIC of methicillin (MRSA [5]) was 1024 µg/mL.

Molecule O=c1c(O)c(-c2ccc(O)cc2O)oc2cc(O)cc(O)c12 [morin] has an MIC50 (MRSA [1]; [6]) of 500 µg/mL (≈ 1650 µM) and an MIC90 (MRSA [1]; [7]) of over 500 µg/mL.

O=c1c(O)c(-c2cc(O)c(O)c(O)c2)oc2cc(O)cc(O)c12 [myricetin] showed an MIC (MRSA [1]; Staphylococcus aureus) of 250 to 500 µg/mL (≈ 786 to 1570 µM), an MIC50 (MRSA [1]; [6]) of 500 µg/mL (≈ 1570 µM) and an MIC90 (MRSA [1]; [7]) of 500 µg/mL (≈ 1570 µM).

In the case of O=C1C[C@@H](c2ccc(O)cc2)Oc2cc(O)cc(O)c21 [naringenin], the MIC50 (MRSA [1]; [6]) is reported as 500 µg/mL (≈ 1840 µM) and the MIC90 (MRSA [1]; [7]) is reported as over 500 µg/mL.

For Cc1onc(-c2ccccc2)c1C(=O)N[C@@H]1C(=O)N2[C@@H]1SC(C)(C)[C@@H]2C(=O)O [oxacillin], the MIC (MRSA [3]) was 512 µg/mL, the “MIC +flavone” value (MRSA [3]) was 1 µg/mL and the survival rate (MRSA infected mouse; antibiotic alone, 0.5 mg/mouse, after 5 days) was 20%. It also gave a survival rate (MRSA infected mouse; antibiotic alone, 1 mg/mouse, after 5 days) of 0%, a survival rate (MRSA infected mouse; antibiotic alone, 5 mg/mouse, after 5 days) of 20% and a survival rate (MRSA infected mouse; antibiotic alone, 10 mg/mouse, after 5 days) of 20%. For the same molecule, the survival rate (MRSA infected mouse; antibiotic alone, 15 mg/mouse, after 5 days) was 0%, the survival rate (MRSA infected mouse; oral, antibiotic 10 mg/mouse with rutin 5 mg/mouse) was 20% and the survival rate (MRSA infected mouse; oral, antibiotic 10 mg/mouse with rutin 10 mg/mouse) was 20%. The survival rate (MRSA infected mouse; oral, antibiotic 15 mg/mouse with rutin 5 mg/mouse) was 40%, the survival rate (MRSA infected mouse; oral, antibiotic 15 mg/mouse with rutin 10 mg/mouse) was 40% and the survival rate (MRSA infected mouse; oxacillin alone, all doses) was at most 20%. It also gave a survival rate (MRSA infected mouse; subcutaneous, antibiotic 10 mg/mouse with rutin 5 mg/mouse) of 40%, a survival rate (MRSA infected mouse; subcutaneous, antibiotic 10 mg/mouse with rutin 10 mg/mouse) of 80% and a survival rate (MRSA infected mouse; subcutaneous, antibiotic 15 mg/mouse with rutin 5 mg/mouse) of 60%. The survival rate (MRSA infected mouse; subcutaneous, antibiotic 15 mg/mouse with rutin 10 mg/mouse) was 60%.

Work on Oc1ccc(-c2[o+]c3cc(O)cc(O)c3cc2O)cc1 [palagonidin] yielded an MIC (MRSA [1]; Staphylococcus aureus) of 250 µg/mL, an MIC50 (MRSA [1]; [6]) of 250 µg/mL and an MIC90 (MRSA [1]; [7]) of 250 µg/mL.

For CC(=N)N1CC[C@H](SC2=C(C(=O)O)N3C(=O)[C@H]([C@@H](C)O)[C@H]3C2)C1 [panipenem], the MIC (MRSA [3]) was 64 µg/mL and the “MIC +flavone” value (MRSA [3]) was 0.002 µg/mL.

With CC(Oc1ccccc1)C(=O)N[C@@H]1C(=O)N2[C@@H]1SC(C)(C)[C@@H]2C(=O)O (stereo partly drawn) [phenethicillin] the MIC (MRSA [3]) was 128 µg/mL and the “MIC +flavone” value (MRSA [3]) was 16 µg/mL.

With O=C(CCc1ccc(O)cc1)c1c(O)cc(O)cc1O [phloretin] the MIC (MRSA [1]; Staphylococcus aureus) was 125 to 250 µg/mL (≈ 456 to 912 µM), the MIC50 (MRSA [1]; [6]) was 250 µg/mL (≈ 912 µM) and the MIC90 (MRSA [1]; [7]) was 250 µg/mL (≈ 912 µM).

Work on C[C@@H]1O[C@@H](OC[C@H]2O[C@@H](Oc3c(-c4ccc(O)c(O)c4)oc4cc(O)cc(O)c4c3=O)[C@H](O)[C@@H](O)[C@@H]2O)[C@H](O)[C@H](O)[C@H]1O [rutin] yielded a solubility ([2]; aqueous with cosolvent or surfactant or cyclodextrin, solution with 4 mmol L-arginine hydrochloride, 1 mmol L-cysteine, 8 mmol 1 N NaOH, adjusted to pH 8.5, precipitate removed) of 49.8 mg/mL (≈ 81600 µM), a survival rate (MRSA infected mouse; rutin alone, oral, 1 mg/mouse) of 20% and a survival rate (MRSA infected mouse; rutin alone, oral, 5 mg/mouse) of 20%. The survival rate (MRSA infected mouse; rutin alone, oral, 10 mg/mouse) was 20%, the survival rate (MRSA infected mouse; rutin alone, oral, 15 mg/mouse) was 40% and the survival rate (MRSA infected mouse; rutin alone, subcutaneous, 1 mg/mouse) was 40%. For the same molecule, the survival rate (MRSA infected mouse; rutin alone, subcutaneous, 5 mg/mouse) was 40%, the survival rate (MRSA infected mouse; rutin alone, subcutaneous, 10 mg/mouse) was 20% and the survival rate (MRSA infected mouse; rutin alone, subcutaneous, 15 mg/mouse) was 40%.

From patent US20040229825A1, “Pharmaceutical composition for treatment of infection with drug resistant bacterium and disinfectant” (priority 2003, published 2004)
